{
  "source": "patent US5610185A",
  "about": "“Method for the treatment of hyperproliferative epithelial skin diseases by topical application of hydroxylated aromatic protein cross-linking compounds” (The United States of America as represented by the …, priority 1995, dated 1997)",
  "key": {"[1]": {"system": "A431 human epidermoid carcinoma cells", "experiment": "Growth inhibition (cell count), A431 cells", "type": "cell-based", "details": "75 μM MC, 3 days", "method": "FIG. 5. Cross-linked Protein Production vs Growth Inhibition in A431 ([…]) Cells. Cell growth is represented by black circles and crosslinked protein production by white circles. Results are ±SD (n=3) of one experiment, representative of three.\nCells were seeded at low density and were treated with MC for 3 days. Cells were then counted and increase in cell number was compared to untreated controls, or cells were processed for cross-linked protein (FIG. 5)."}, "[2]": {"system": "SQCC-Y1 human squamous carcinoma cells", "experiment": "Cornified envelope (cross-linked protein) assay, SQCC-Y1 cells", "type": "cell-based", "details": "SQCC-Y1, 48 h, 0.1-1 mM"}, "[3]": {"system": "normal human epidermal keratinocytes from foreskin", "experiment": "Cross-linking in primary normal human epidermal keratinocytes", "type": "cell-based", "details": "Keratinocyte, read-out: concentration for response in cross-linking", "text": "The increased sensitivity of mouse primary keratinocytes for the cross-linking effect is not related to the normal phenotype. […] Hydroxylated aromatic protein crosslinking compounds induce the cross-linking of cell proteins into cornified envelope-like structures, causing cell death by a non-biological mechanism which emulates the normal differentiation program of epidermal keratinocytes. In addition to their growth inhibitory properties, the unique protein cross-linking ability of the class of compounds described in the instant invention proffers a new mechanism for the topical treatment of hyperproliferative diseases of the skin."}, "[4]": {"system": "I-7 mouse squamous cell carcinoma cells", "experiment": "Cornified envelope (cross-linked protein) assay, I-7 cells", "type": "cell-based", "details": "I-7 (carcinoma), 48 h, 0.1-1 mM", "text": "(§1) FIG. 1. MC Increases Cross-linked Protein in Epidermal Cell Lines. Black squares represent HPV 18 human epithelial keratinocytes; black circles represent SV 40 infected human keratinocytes; black triangles represent (SQCC-Y1) cells; white triangles represent (SP-1) benign tumor mouse keratinocytes; white squares represent (308 cells) benign mouse keratinocytes; and white circles represent (I-7) cells mouse squamous cell carcinoma.\n(§2) Primary mouse keratinocytes were isolated from BALB/c newborn mouse skin. Primary keratinocytes, the benign neoplastic keratinocyte cell lines 308 and SP-1 (Strickland et al, Cancer Res., 48, 165-169, 1988) and the mouse squamous cell carcinoma line 1-7 (Greenhalgh et al., Proc. Natl. Acad. Sci., 87, 643-647, 1990) were grown in Eagle's minimal essential medium with 8% fetal calf serum (FCS) (chelexed) and penicillin 20 iu/ml, streptomycin 20 ug/ml (P/S). Unless otherwise indicated, the Ca^2+ concentration in medium was adjusted to 0.05 mM (Hennings et al., Cells, 19, 245-254, 1980). […]\n(§3) Cells were incubated with MC for 48 hours, then cross-linked protein was isolated and measured as described in Example 1.\n(§4) The assay measures insoluble cross-linked protein envelopes as described (Hough-Monroe et al. Analytical biochem., 199, 25-28, 1991), with modifications as follows. […] Absorbance of eluate was measured on a Titertek plate reader at 600 nm."}, "[5]": {"system": "308 cells (benign neoplastic mouse keratinocytes)", "experiment": "Cornified envelope (cross-linked protein) assay, 308 cells", "type": "cell-based", "details": "308 (papilloma), 48 h, 0.1-1 mM", "text": "as §1, §2, §3, §4"}, "[6]": {"system": "primary mouse keratinocytes", "experiment": "Growth inhibition (cell count), primary mouse keratinocytes", "type": "cell-based", "details": "Keratinocyte, 72 h, 25 μM MC, 3 days, read-out: cells that continued to grow", "method": "FIG. 4. Cross-linked Protein Production vs Growth Inhibition in Mouse Primary Keratinocytes. Cell growth is represented by black squares and cross-linked protein production by white squares. Results are ±SD (n=3) of one experiment, representative of three.\nCells were seeded at low density and were treated with MC for 3 days. Cells were then counted and increase in cell number was compared to untreated controls, or cells were processed for cross-linked protein. (FIG. 4) Protein cross-linking was rapid, commencing within 4 hours at 1 mM in mouse primary keratinocytes, (FIG. 3A) and was accompanied by cell death, as measured by the MTT assay (FIG. 3B)."}, "[7]": {"system": "athymic nude mouse skin", "experiment": "Acute topical toxicity on athymic nude mouse skin", "type": "in vivo", "method": "FIGS. 9A, 9B, 9C, 9D and 9E show color photographs. Topical Application of MC on Athymic Nude Mouse Skin. Histological sections were taken from paraffin-embedded tissue and were stained with hematoxylin and eosin. Panel a is vehicle control; panel b is 100 μM MC; panel c is 1 mM MC; panel d is 10 mM MC; and panel e is 100 mM MC. Magnification is 200x.\nFIGS. 13A, 13B and 13C show color photographs of mice. […] Photographs were taken after animal sacrifice upon termination of the experiments.\nAcute topical toxicity of MC was assessed by its application to athymic mouse skin and observation for inflammation, ulceration or other signs of toxicity after 5x weekly applications for 2 weeks and by microscopical analysis of paraffin-embedded sections of athymic mouse skin after MC application. Male nu/nu mice, 8 weeks old, were subdivided into 5 treatments groups and MC was administered topically in 10% DMSO in acetone vehicle. Mice were treated with a control vehicle, 100 μM MC, 1 mM MC, 10 mM MC or 100 mM MC. Treatment was 5 times per week for two weeks, after which animals were sacrificed and dorsal skin was fixed in Carnoy's solution at 4° C. for 24 hours followed by ethanol 100%. Histological sections were taken from paraffin-embedded tissue and were stained with hematoxylin and eosin. FIG. 13 illustrates the effect of MC on the skin of nude mice.\nMale nu/nu mice, 8 weeks old, were subdivided into treatment groups and MC was administered topically to dorsal skin in 10% DMSO in acetone vehicle (25 μl). Treatment was 5 times per week for two weeks. […] MC itself is yellow-brown, so some discoloration would be expected due to drug deposition and accumulation at this high concentration."}},
  "note": "Entries after “also recorded” stand apart in the source; their conditions may differ.",
  "data": [
    {"smiles": "COC(=O)C=Cc1cc(O)ccc1O", "note": "[MC, methyl 2,5-dihydroxycinnamate]", "values": [
      {"measurement": "inhibition of cell growth", "setting": "[1]", "value": "inhibited cell growth significantly"},
      {"measurement": "cross-linked protein (envelope production)", "setting": "[2]", "value": "induced crosslinked envelope production; also recorded: increased cross-linked protein in a dose-dependent manner"},
      {"measurement": "minimal effective concentration", "setting": "[3]", "value": "≥ 250", "unit": "µM"},
      {"measurement": "cross-linked protein (envelope production)", "setting": "[4]", "value": "induced crosslinked envelope production; also recorded: increased cross-linked protein in a dose-dependent manner"},
      {"measurement": "cross-linked protein (envelope production)", "setting": "[5]", "value": "induced crosslinked envelope production; also recorded: increased cross-linked protein in a dose-dependent manner"},
      {"measurement": "activity at 25 µM", "setting": "[6]", "value": 20, "unit": "%"},
      {"measurement": "microscopy: inflammatory infiltrates", "setting": "[7]; mouse, in vivo", "value": "focal inflammatory infiltrates were visible"},
      {"measurement": "microscopy: necrosis", "setting": "[7]; mouse, in vivo", "value": "no obvious necrosis"},
      {"measurement": "microscopy: vacuolation of epidermal cells", "setting": "[7]; mouse, in vivo", "value": "some vacuolation of epidermal cells"},
      {"measurement": "systemic toxicity or changes in skin at the application site", "setting": "[7]; mouse, in vivo", "value": "No changes were observed"},
      {"measurement": "acute toxicity or inflammation by microscopy", "setting": "[7]; up to 10 mM, topical, normal athymic mouse skin", "value": "not acutely toxic or inflammatory"}
    ]}
  ]
}
